Results taken from patent US20010002251A1, “Intracellular sensitizers for sonodynamic therapy” (Pharmacyclics, Inc., priority 1998, published 2001).

Assays:
[1] = system: murine leukemia L1210 cells; test: Amino acid (cytoleucine) transport after ultrasound in L1210 cells; format: cell-based; settings: 6 μM sensitizer, 15 min loading at 37° C., only intracellular texaphyrin; ultrasound 1.94 MHz, 3.9 W/cm^2
Method: (§1) The effect of low-level, non-thermal ultrasound on the murine leukemia L1210 cell line in culture, measuring ultrasound-induced cytotoxicity is determined by a modification of the procedure initially described by Kessel et al., 1994. Int. J. Radiat. Biol., 66 (1994). Sonodynamic therapy with and without a texaphyrin and with and without low intensity irradiation of ultrasound. A murine 1210 cell line was used, The cytotoxicity of low-intensity ultrasound on murine leukemia L1210 cells is associated with cell fragmentation, and was detected by measuring the inhibition of the active transport of a non-metabolized amino acid (cytoleucine) and by a viability assay.
(§2) Cell Culture Systems—Murine leukemia L1210 cells were grown in Fischer's medium (GIBCO, Grand Island, N.Y.) supplemented with glutamine, 10% horse serum and gentamicin. All operations were carried out at 37° C. […]
Amino Acid Transport—The effect of ultrasound on the capacity of L1210 cells for concentrative accumulation of the non-metabolized amino-acid cytoleucine was assesed as a probe for damage to membrane […] systems. […] After 15 minutes, the cells were collected by centrifugation, washed with isotonic NaCl and cell radioactivity determined by liquid scintillation counting. […]

[2] = system: murine leukemia L1210 cells; test: Cell fragmentation after ultrasound (Coulter particle size distribution); format: cell-based; settings: 6 μM sensitizer, 15 min loading at 37° C., only intracellular texaphyrin; ultrasound 1.94 MHz, 3.9 W/cm^2
Method: as §1, §2
(§3) Fragmentation and Viability Studies—Cell counts and the particle size distribution were determined with a Coulter Electronics ZM Particle Analyzer and Model 256 Channelyzer. The Channelyzer determines the mean particle volume; intact cells were detected in channels 80-110. […] Cell counts were again determined after incubation for sufficient time to allow the number of control (untreated) cells to reach 20,000/ml, approximately 5 doublings.

[3] = system: murine leukemia L1210 cells; test: Viability (growth) assay after ultrasound; format: cell-based; settings: for Viability: 6 μM sensitizer, 15 min loading at 37° C., only intracellular texaphyrin, ultrasound 1.94 MHz, 3.9 W/cm^2; for potentiation of the cytotoxic effect of ultrasound: cells previously exposed to 6 μM, ultrasound at 3.9 W/cm
Method: as §1
Cell Culture Systems—Murine leukemia L1210 cells were grown in Fischer's medium (GIBCO, Grand Island, N.Y.) supplemented with glutamine, 10% horse serum and gentamicin. All operations were carried out at 37° C. Exponentially growing cells were collected by centrifugation, resuspended (5×10^6 cells/ml) in serum-free Fischer's medium buffered to pH 7.0 with 20 mM HEPES.
Sensitizers—Lutetium Texaphyrin (Lu-Tex or PCI-0123) and Gadolinium Texaphyrin (Gd-Tex or PCI-0120) were dissolved in water at a concentration of 6 μM.
Test Groups—Four groups of cells were established: Control A (no sensitizer and no ultrasound), Control B (no sensitizer, with ultrasound); 6 μM Lu-Tex with ultrasound, and 6 μM Gd-Tex with ultrasound. A small volume of the respective sensitizers were added to the Lu-Tex and Gd-Tex groups followed by a loading incubation of 15 minutes at 37° C. The cells were then suspended in fresh (serum free) medium, such that only intracellular texaphyrin remained.
Ultrasound—Exposure of cell suspensions (except Control A) to ultrasound was carried out in 2.5 cm diameter petri dishes in a bath of degassed water. A 2.54-cm-diameter transducer (Valpey-Fisher) was driven by a power amplifier (ENI 240L) with a continuous wave 1.94 MHz sinusoidal signal source (Wavetek Model 23). The acoustic field was calibrated with a Marconi PVDF membrane hydrophone in a free field condition 3.0 cm from the surface of the transducer which is also the distance from the face to the exposure dish. The acoustic intensity, expressed in terms of the spatial peak temporal average (SPTA), was 3.9 W/cm^2.
as §3, with “80-110. Smaler particles represent debris resulting from cell fragmentation.” for “80-110.”

Colon 26 tumor cells = test: Experimental kidney tumor assay of sonodynamic sensitizing activity; format: in vivo, mouse; settings: 1.0 mg/kg i.v., ultrasound 24 hours later, 5 minutes, 0.5 and 1 MHz, 8 W/cm^2; sacrifice after 7 days
Method: In vivo activity for sonodynamic therapy is determined, e.g., by post-mortum histological examination of tumor tissue by hematoxylin and eosin, as described in Yumita et al., Cancer Letters 112 (1997). The antitumor effects of sonodynamic therapy are evaluated by implanting tumor cells into one kidney in a mouse (the other kidney remaining untreatd and serving as a control). Approximately 24 hours after intravenous administration of a sonodynamic sensitizer to be tested, the mouse is anesthesized and the tumorous kidney exteriorized. The position and the angle of the mouse are adjusted to facilitate ultrasound ultrasound penetration of the entire kidney, with the tumor at the focal spot. Ultrasound is delivered in continuous waves by a focused array transducer, the kidney is returned to the abdominal cavity and the abdomen is closed. After 7 days the mouse is sacrificed and the kidneys stained with hematoxylin and eosin for histologic examination. The tumor bearing and control kidneys are compared.
This procedure is a modification of a procedure initially described by Yumita et al., Cancer Letters 112 (1997).
Colon 26 tumor cells are implanted into one kidney in a male CDF mouse (the other kidney remaining untreated and serving as a control). After 14 days, 1.0 mg/kg of a texaphyrin is administered by intravenous injection. 24 Hours later, the mouse is anesthetized and the tumorous kidney exteriorized. The position and the angle of the mouse are adjusted to facilitate ultrasound ultrasound penetration of the entire kidney, with the tumor at the focal spot. Ultrasound is delivered in continuous waves by a focused array transducer. The tumor is exposed to focused ultrasound for 5 minutes in a progressive wave mode, at a frequency of 0.5 MHz for the first wave and 1 MHz for the second wave, at an intensity of 8 W/cm^2 followed by the second-harmonic superimposition of ultrasound at the same intensity, for a total exposure of 5 minutes. The kidney is returned to the abdominal cavity and the abdomen is closed. […]

[4] = Maximum tolerated dose study; format: in vivo; settings: determined in one study; intravenous injection
Method: For example, Lutetium Texaphyrin is administered in solution containing 2 mg/ml optionally in 5% mannitol, USP. Dosages of about 1.0 or 2.0 mg/kg to about 4.0 or 5.0 mg/kg, preferably 3.0 mg/kg may be employed, up to a maximum tolerated dose that was determined in one study to be 5.2 mg/kg. The texaphyrin is administered by intravenous injection, followed by a waiting period of from as little as several minutes or about 3 hours to as long as about 72 or 96 hours (depending on the treatment being effected) to facilitate intracellular uptake and clearance from the plasma and extracellular matrix prior to the administration of the sonodynamic agent. The co-administration of a sedative (e.g., benzodiazapenes) and narcotic analgesic are sometimes recommended prior to topical (as opposed to intravascular) light treatment. Topical administration. of Emla cream (lidocaine, 2.5% and prilocaine, 2.5%) under an occlusive dressing and other intradermal, subcutaneous and topical anesthetics may also be employed as necessary to reduce discomfort. Similar patient comfort considerations may apply in sonodynamic therapy, as will be apparent to the treating physician. Subsequent treatments can be provided after suitable time interval, currently approximately 21 days. […]

Row | Molecule | Amount of Cytoleucene Transported [1] | Fragmentation [2] | Viability [3] | potentiation of the cytotoxic effect of ultrasound [3] | comparison of tumor-bearing and control kidneys (histologic examination) (Colon 26 tumor cells) | maximum tolerated dose [4]
1 | CC(=O)[O-].CC(=O)[O-].CCc1c(CC)c2cc3nc(cnc4cc(OCCOCCOCCOC)c(OCCOCCOCCOC)cc4ncc4nc(cc1[n-]2)C(CCCO)=C4C)C(C)=C3CCCO.O.[Gd+3] [Gd-Tex, Gadolinium Texaphyrin] | 3.2 ± 0.4 | 64 ± 4 | 42 ± 5 | substantial potentiation | substantially the same | 
2 | CC(=O)[O-].CC(=O)[O-].CCc1c(CC)c2cc3nc(cnc4cc(OCCOCCOCCOC)c(OCCOCCOCCOC)cc4ncc4nc(cc1[n-]2)C(CCCO)=C4C)C(C)=C3CCCO.O.[Lu+3] [Lu-Tex, Lutetium Texaphyrin] | 2.8 ± 0.3 | 73 ± 6 | 24 ± 3 | substantial potentiation | substantially the same | 5.2 mg/kg
3 | yttrium texaphyrin |  |  |  |  | substantially the same | 
